Test results taken from patent US20040209914A1, “Aromatic sulfone hydroxamic acids and their use as protease inhibitors” (priority 2000, published 2004).

Assays:
Recombinant human MMP-13 = target: T1, Recombinant human MMP-13 (Homo sapiens, UniProt P45452); assay: biochemical; conditions: fluorogenic MCA-peptide substrate, pH 7.5, room temperature; read-out: MMP-13 IC50
T1 construct: made in house; host or cells: baculovirus / insect cells
How it was run: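 APMA-activated MMP (proenzyme purified on heparin agarose and chelating zinc columns) incubated at room temperature with 4 uM fluorogenic MCA-ProLeuGlyLeuDpaAlaArgNH2 substrate. Inhibition read as reduced fluorescence versus inhibitor concentration relative to a DMSO control, giving IC50.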

Recombinant human MMP-1 = target: T2, Recombinant human MMP-1 (Homo sapiens, UniProt P03956); assay: biochemical; conditions: fluorogenic MCA-peptide substrate, pH 7.5, room temperature
T2 construct: made in house; host or cells: transfected HT-1080 cells
T2 sequence (P03956 100-469): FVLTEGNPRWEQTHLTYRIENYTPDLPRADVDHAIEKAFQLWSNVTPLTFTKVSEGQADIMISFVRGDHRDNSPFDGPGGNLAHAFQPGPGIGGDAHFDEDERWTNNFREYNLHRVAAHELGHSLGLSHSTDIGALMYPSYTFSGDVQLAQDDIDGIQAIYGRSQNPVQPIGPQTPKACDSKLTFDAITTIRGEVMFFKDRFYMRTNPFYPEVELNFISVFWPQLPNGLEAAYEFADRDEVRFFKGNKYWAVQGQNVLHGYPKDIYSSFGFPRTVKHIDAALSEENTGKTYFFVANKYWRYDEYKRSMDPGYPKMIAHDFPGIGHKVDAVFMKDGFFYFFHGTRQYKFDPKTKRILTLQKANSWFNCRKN
How it was run: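 Recombinant human MMP-1 from transfected HT-1080 cells, APMA-activated and hydroxamate-column purified, was incubated at room temperature with 4 uM MCA-ProLeuGlyLeuDpaAlaArgNH2 fluorogenic substrate. Inhibition taken as fall in fluorescence versus inhibitor concentration, giving IC50.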

Recombinant human MMP-2 = target: T3, Recombinant human MMP-2 (Homo sapiens, UniProt P08253); assay: biochemical; conditions: fluorogenic MCA-peptide substrate, pH 7.5, room temperature; read-out: MMP-2 IC50
T3 construct: made in house
T3 sequence (P08253 110-660): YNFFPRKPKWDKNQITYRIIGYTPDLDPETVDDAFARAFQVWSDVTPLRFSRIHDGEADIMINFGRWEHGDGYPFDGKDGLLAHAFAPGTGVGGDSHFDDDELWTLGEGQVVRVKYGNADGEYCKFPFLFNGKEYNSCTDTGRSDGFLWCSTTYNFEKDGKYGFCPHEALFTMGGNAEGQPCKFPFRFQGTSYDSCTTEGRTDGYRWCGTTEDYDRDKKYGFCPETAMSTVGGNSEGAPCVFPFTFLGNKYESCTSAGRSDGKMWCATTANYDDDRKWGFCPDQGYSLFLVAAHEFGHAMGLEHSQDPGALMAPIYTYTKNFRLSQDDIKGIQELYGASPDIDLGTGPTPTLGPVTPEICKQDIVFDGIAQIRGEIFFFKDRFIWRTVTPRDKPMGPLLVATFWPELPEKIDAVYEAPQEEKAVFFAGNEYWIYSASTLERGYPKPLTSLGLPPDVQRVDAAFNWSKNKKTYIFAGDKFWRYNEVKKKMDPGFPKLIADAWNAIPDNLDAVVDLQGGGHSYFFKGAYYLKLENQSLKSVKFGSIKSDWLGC
How it was run: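 Activated (APMA or trypsin) recombinant human MMP-2, from transfected expressing cells, incubated at room temperature with 4 uM fluorogenic substrate MCA-Pro-Leu-Gly-Leu-Dpa-Ala-Arg-NH2 and hydroxamate inhibitor.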

[1] = tested on: solid tumor cancers (colorectal, pancreatic, ovarian, and prostate); conditions: patients with advanced, rapidly progressive, treatment-refractory solid tumor cancers; cited from earlier work

Row | IC50 (Recombinant human MMP-13) [nM] | IC50 (Recombinant human MMP-1) [nM] | IC50 (Recombinant human MMP-2) [nM] | Compound | effect on cancer-specific antigens used as surrogate markers for biological activity [1]
1 | 3.5 | > 10000 | 640 | O=C(c1ccc(CCC2CCCC2)cc1)C1CCN(c2ccc(S(=O)(=O)C3(C(=O)NO)CCOCC3)cc2)CC1 [Example 381] | 
2 | 0.3 | > 10000 | 1310 | CCC(C)Cc1ccc(C(=O)C2CCN(c3ccc(S(=O)(=O)C4(C(=O)NO)CCOCC4)cc3)CC2)cc1 (stereo not shown) [Example 382] | 

Further lines, the compound ahead of its results:

Row | Compound | IC50 (Recombinant human MMP-13) [nM] | IC50 (Recombinant human MMP-1) [nM] | IC50 (Recombinant human MMP-2) [nM] | effect on cancer-specific antigens used as surrogate markers for biological activity [1]
3 | O=C(c1ccc(Br)cc1)C1CCN(c2ccc(S(=O)(=O)C3(C(=O)NO)CCOCC3)cc2)CC1 [Example 378] | 0.3 | > 10000 | 28.4 | 
4 | O=C(c1ccc(CC2CCCC2)cc1)C1CCN(c2ccc(S(=O)(=O)C3(C(=O)NO)CCOCC3)cc2)CC1 [Example 379] | 0.6 | > 10000 | 1270 | 
5 | O=C(c1ccc(CC2CCCCC2)cc1)C1CCN(c2ccc(S(=O)(=O)C3(C(=O)NO)CCOCC3)cc2)CC1 [Example 380] | 9.7 | > 10000 | 2290 | 
6 | CNC(=O)[C@@H](NC(=O)[C@H](CC(C)C)[C@H](O)C(=O)NO)C(C)(C)C [Marimastat] |  |  |  | dose-related reduction in the rise of cancer-specific antigens
